Data on 9 compounds can be found in patent US20250129069A1, “TRIAZOLO WRN INHIBITORS” (Nimbus Wadjet, Inc., priority 2023, published 2025).

One test has as its system p21 induction in HCT 116 cells. As to the kind of experiment: p21 induction in cells (In-Cell Western, p21/GAPDH ratio). Format: cell-based. The following applies: 24 h compound incubation, read-out: p21_EC50. As for the experimental part:
The colon carcinoma cell line HCT 116 was obtained from ATCC and cultured in growth medium consisting of Mccoy's 5A Medium (Gibco 16600108) supplemented with 10% FBS (Transgene FS201-02) and 100 units/mL penicillin-streptomycin (Gibco 15140122) and maintained at 37° C. under 5% CO2. On the day of seeding, 2,000 cells in 30 μL of culture media were plated per well to Poly-D-Lysine 384 Well Black Clear Plates (Biocoat 356663) and incubated overnight at 37° C. under 5% CO2. The following day, compounds were serially diluted in DMSO for a total of 11 test concentrations. The typical starting concentration of compounds was 10 μM with 2-fold dilutions. Next, 150 nL of diluted compound was added in duplicate to the assay plate, using an Echo 655 (Labcyte). The plate was centrifuged at 500 RPM for 1 min and then incubated at 37° C. under 5% CO2 for 24 h. After 24 h, medium was removed, and cells were fixed by adding 40 μL of 4% paraformaldehyde solution to each well and incubated for 20 min at room temperature. The plate was then washed 4 times with 100 μL per well of wash buffer (PBS with 0.1% Tween-20) using a microplate washer. Next, 30 μL of ice-cold methanol was added to each well and the plate was incubated at −20° C. for 10 min. The plate was washed 4 times with 100 μL per well of wash buffer by a microplate washer, then 30 μL per well of blocking buffer ((Intercept PBS blocking buffer (LI-COR 927-70001) with 0.05% Tween-20)) was added and the plate was incubated at room temperature with shaking for 2 h. Next, to each test well, 20 μL of primary antibody solution (p21 Wafl/CIP (12D1) RabbitmAb (Cell Signaling Technologies 2947) diluted 1:1000 and GAPDH (D4C6R) Mouse mAb (Cell Signaling Technologies 97166) diluted 1:2000 in blocking buffer) was added and the plate was placed at 4° C., overnight. The following day, the plate was washed 5 times with 100 μL per well of wash buffer using a microplate washer for 5 min. 20 μL per well of secondary antibody (IRDye 680CW Goat anti-Mouse IgG (H+L) (LI-COR 926-68070) diluted 1:2000 in Blocking Buffer and IRDye 800CW Goat anti-Rabbit IgG (H+L) (LI-COR 926-32211) diluted 1:2000 in Blocking Buffer) was then added and the plate was stored for 2 h in the dark at room temperature with shaking. The plate was then washed 4 times with 100 μL per well of wash buffer again using a microplate washer. Finally, the p21 signal and the GAPDH signal were quantified using a LI-COR Odyssey CLx Imager machine reading at 800 nm and 700 nm, respectively. Each plate contained DMSO control (low control) and an internal reference WRN inhibitor (high control) respectively. For quantitation, the 800 nm/700 nm ratio was calculated for each well to give fold p21 induction and then percent activation for each compound well was calculated as follows (100×(ratio cpd well-ratio low control)/(ratio high control−ratio low control). EC50 values for each compound was generated after non-linear regression curve fitting using commercially available software.
For `CCc1c(N2CCN(C(=O)c3ncnc(C)c3O)[C@H]3CC[C@@H]32)c(=O)c2nn(-c3ccnc(OC)c3)nc2n1CC(=O)NC12CC(C3CCC3)(C1)C2` [Compound I-62, N-{3-cyclobutylbicyclo[1.1.1]pentan-1-yl}-2-{5-ethyl-6-[(1S,6S)-5-(5-hydroxy-6-methylpyrimidine-4-carbonyl)-2,5-diazabicyclo[4.2.0]octan-2-yl]-2-(2-methoxypyridin-4-yl)-7-oxo-2H,4H,7H-[1,2,3]triazolo[4,5-b]pyridin-4-yl}acetamide], the EC50 is not above 500 nM.

Still in this test, the particulars now being: Homo sapiens, 24 h compound incubation, read-out: p21_EC50.
As for `CCc1c(N2CCN(C(=O)c3ncnc(C)c3O)[C@H]3CC[C@@H]32)c(=O)c2nn(C3=CCC(OC)CC3)nc2n1CC(=O)NC12CC(C3CC3)(C1)C2` (stereo partly drawn) [Compound I-173, N-{3-cyclopropylbicyclo[1.1.1]pentan-1-yl}-2-{5-ethyl-6-[(1S,6S)-5-(5-hydroxy-6-methylpyrimidine-4-carbonyl)-2,5-diazabicyclo[4.2.0]octan-2-yl]-2-(4-methoxycyclohex-1-en-1-yl)-7-oxo-2H,4H,7H-[1,2,3]triazolo[4,5-b]pyridin-4-yl}acetamide], the EC50 was not above 500 nM. Consider `CCc1c(N2CCN(C(=O)c3ncnc(C)c3O)[C@H]3CC[C@@H]32)c(=O)c2nn(C3=CCOC(C)C3)nc2n1CC(=O)NC12CC(C3CC3)(C1)C2` (stereo partly drawn) [Compound I-172, N-{3-cyclopropylbicyclo[1.1.1]pentan-1-yl}-2-{5-ethyl-6-[(1S,6S)-5-(5-hydroxy-6-methylpyrimidine-4-carbonyl)-2,5-diazabicyclo[4.2.0]octan-2-yl]-2-(2-methyl-3,6-dihydro-2H-pyran-4-yl)-7-oxo-2H,4H,7H-[1,2,3]triazolo[4,5-b]pyridin-4-yl}acetamide], for which the EC50 was not above 500 nM. Take `CCc1c(N2CCN(C(=O)c3ncnc(C)c3O)[C@H]3CCC[C@@H]32)c(=O)c2nn(-c3ccnc(OC)c3)nc2n1CC(=O)NC12CC(C3CC3)(C1)C2` [Compound I-33, 2-{6-[(4aS,7aS)-4-(5-hydroxy-6-methylpyrimidine-4-carbonyl)-octahydro-1H-cyclopenta[b]pyrazin-1-yl]-5-ethyl-2-(2-methoxypyridin-4-yl)-7-oxo-2H,4H,7H-[1,2,3]triazolo[4,5-b]pyridin-4-yl}-N-{3-cyclopropylbicyclo[1.1.1]pentan-1-yl}acetamide]: the EC50 was not above 500 nM. With `CCc1c(N2CCN(C(=O)c3c(OC)ccc4ncoc34)[C@H]3CC[C@@H]32)c(=O)c2nn(C3=CCOCC3)nc2n1CC(=O)NC12CC(C3CC3)(C1)C2` [Compound I-192, N-{3-cyclopropylbicyclo[1.1.1]pentan-1-yl}-2-[2-(3,6-dihydro-2H-pyran-4-yl)-5-ethyl-6-[(1S,6S)-5-(6-methoxy-1,3-benzoxazole-7-carbonyl)-2,5-diazabicyclo[4.2.0]octan-2-yl]-7-oxo-2H,4H,7H-[1,2,3]triazolo[4,5-b]pyridin-4-yl]acetamide], the EC50 was not above 500 nM. `CCc1c(N2CCN(C(=O)c3ncnc(C)c3O)CC2)c(=O)c2nn(C3=CCOCC3)nc2n1CC(=O)NC12CC(C(C)C)(C1)C2` [Compound I-38, 2-[2-(3,6-dihydro-2H-pyran-4-yl)-5-ethyl-6-[4-(5-hydroxy-6-methylpyrimidine-4-carbonyl)piperazin-1-yl]-7-oxo-2H,4H,7H-[1,2,3]triazolo[4,5-b]pyridin-4-yl]-N-[3-(propan-2-yl)bicyclo[1.1.1]pentan-1-yl]acetamide]: the EC50 fell in the range of 500 to 2000 nM.

Another test deals with human Werner helicase (WRN, amino acids 517-1235 with L1074F point mutation) (Homo sapiens (Human), UniProt Q14191, L1074F). The test can be described thus: WRN (BV08) ADP-Glo assay. Format: biochemical. Particulars: human WRN (aa 517-1235, L1074F), read-out: ADP-Glo_hWRN_IC50. The source says: Bovine skin gelatin (BSG), dimethyl sulfoxide (DMSO), Pluronic F-127 and tris(2-carboxyethyl)phosphine hydrochloride solution (TCEP) were purchased from Sigma-Aldrich (St. Louis, MO) at the highest level of purity possible. Bicine buffer solution was purchased from Alfa Aesar (Tewksbury, MA) and compound NSC-617145 was purchased from Tocris (Minneapolis, MN). DNA duplex was synthesized at BGI (Shenzhen, China) and was composed of strand 1 with the sequence 5′-[…]-3′ (SEQ ID NO.: 1) and strand 2 with the sequence 5′-[…]-3′ (SEQ ID NO.: 2). DNA strands were annealed by heating to 95° C. for 5 minutes followed by slow cooling to room temperature. Compounds in 100% DMSO (0.1 μl) were spotted into a 384-well white polystyrene Optiplate-384 (Perkin Elmer; Waltham, MA) assay plate using a LabCyte Echo 550 (Agilent; Santa Clara, CA). DMSO (0.1 μl) was added to columns 12, rows A-H and column 24, rows I-P for the maximum signal control. Compound NSC-617145 (0.1 μl) was added to columns 12, rows I-P and 24, rows A-H for the minimum signal control (100% inhibition). Compounds/DMSO were preincubated for 15 minutes at 25° C. with 5 μl 2×WRN (BV08), prepared as described below, in assay buffer containing 20 mM Bicine (pH=7.5), 1 mM MgCl2, 10 mM KCl, 0.1% Pluronic F-127, 0.005% BSG, 1 mM TCEP. The reaction was initiated by the addition of 5 μl 2× substrate mixture in assay buffer and incubated for 60 minutes at 25° C. The final concentrations of the assay components were 0.15 nM WRN, 5 μM ATP, and 0.1 nM DNA duplex. The final DMSO concentration was 1% and the reference compound concentration (NSC-617145) used for the minimal signal control was 20 μM. The reaction was stopped by the addition of the ADP-Glo Kit components (Promega; Madison, WI) as directed and the relative luminescence units (RLU) were read on an Envision 2104 (Perkin Elmer; Waltham, MA).
Chain of human Werner helicase (WRN, amino acids 517-1235 with L1074F point mutation) (Q14191 other isoform, or with tags, fused parts or gaps L1074F (already in the parent)): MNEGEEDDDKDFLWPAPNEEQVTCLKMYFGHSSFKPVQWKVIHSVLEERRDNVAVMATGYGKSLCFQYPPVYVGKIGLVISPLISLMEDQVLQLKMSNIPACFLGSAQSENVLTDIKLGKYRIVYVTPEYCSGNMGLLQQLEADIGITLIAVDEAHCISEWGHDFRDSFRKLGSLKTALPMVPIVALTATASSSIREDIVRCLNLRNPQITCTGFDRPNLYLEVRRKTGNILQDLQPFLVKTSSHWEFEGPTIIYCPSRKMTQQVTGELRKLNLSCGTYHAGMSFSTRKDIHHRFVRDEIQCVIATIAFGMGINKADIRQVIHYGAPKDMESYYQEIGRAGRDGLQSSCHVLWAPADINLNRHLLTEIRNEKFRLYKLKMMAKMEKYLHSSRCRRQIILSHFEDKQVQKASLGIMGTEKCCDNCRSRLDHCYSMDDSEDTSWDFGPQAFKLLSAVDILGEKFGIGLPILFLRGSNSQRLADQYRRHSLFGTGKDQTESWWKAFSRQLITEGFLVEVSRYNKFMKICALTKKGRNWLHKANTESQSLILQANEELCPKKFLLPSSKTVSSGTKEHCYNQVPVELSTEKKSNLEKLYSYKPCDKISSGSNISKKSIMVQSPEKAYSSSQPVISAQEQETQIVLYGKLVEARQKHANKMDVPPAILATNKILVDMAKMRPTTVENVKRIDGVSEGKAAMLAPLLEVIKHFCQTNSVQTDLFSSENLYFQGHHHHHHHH
% inhibition calculation:
% INH=(RLU MAX−RLU sample)/(RLU MAX−RLU MIN))×100
Where RLU=relative luminescence units, sample=signal in sample well, and MIN and MAX are the respective minimum and maximum signal controls. Four-parameter IC50 fit equation:
Y=Bottom+(Top−Bottom)/(1+(IC50/X)^Hill Slope)
Where top and bottom are normally allowed to float but may be fixed at 100 or 0 respectively in a 3-parameter fit. Y is the % inhibition and X is the compound concentration.
Molecular Biology and virus production. The DNA encoding human Werner helicase (Uniprot Q14191, amino acids 517-1235 with L1074F point mutation) was generated with codon-optimization for E. coli expression and subcloned into the pFastBac vector with a TEV cleavable 8×His tag (WRN—BV08). The baculovirus from the expression plasmid WRN—BV08 was generated from transfection and amplification following the manufacturer's instructions.
Sf9 cells grown in SF900II media were infected with 1:200 WRN—BV08 P2 virus and incubated for protein expression for 72 h at 27° C. The WRN protein was purified using the following protocol. The cell pellets were thawed and resuspended in buffer A (50 mM Tris, pH 7.5, 500 mM NaCl, 1 mM TCEP, 10% Glycerol) supplemented with 0.5% CHAPS, 1 mM PMSF, […] Leupeptin, 1 μg/ml Pepstatin, and the Pierce Universal Nuclease and cocktail tablet. Cleared lysates were loaded onto a Ni Sepharose™ excel column and washed with buffer A and bound protein was eluted with buffer A supplemented with 300 mM imidazole. The eluted protein was dialyzed against buffer A and digested by His-tagged TEV (1:5 ratio) overnight at 4° C. ZnCl2 was added into the sample at final 15 μM before loading onto a second Ni Sepharose™ excel column. Untagged WRN protein was eluted from the column with buffer A supplemented with 20 mM imidazole, dialyzed overnight into buffer B (50 mM Tris, pH 7.5, 1 mM TCEP, 10% Glycerol) supplemented with 150 mM NaCl and loaded onto a Heparin column. Proteins were eluted with a step gradient of buffer B supplemented with 150 mM, 200 mM, 300 mM and 500 mM NaCl. […]
In general terms: ADP-Glo turns the ADP formed in a reaction into a luminescent signal.
Regarding `CCc1c(N2CCN(C(=O)c3ncnc(C)c3O)CC2)c(=O)c2nn(-c3cc(C)n(C)n3)nc2n1CC(=O)Nc1ccc(C(F)(F)F)cc1Cl` [Compound I-16, N-(2-chloro-4-(trifluoromethyl)phenyl)-2-(2-(1,5-dimethyl-1H-pyrazol-3-yl)-5-ethyl-6-(4-(5-hydroxy-6-methylpyrimidine-4-carbonyl)piperazin-1-yl)-7-oxo-2,7-dihydro-4H-[1,2,3]triazolo[4,5-b]pyridin-4-yl)acetamide], the IC50 was 5 to 50 nM. As to `CCc1c(N2CCN(C(=O)c3ncnc(C)c3O)[C@H]3CC[C@@H]32)c(=O)c2nn(-c3ccnc(OC)c3)nc2n1CC(=O)Nc1ccc(C(F)(F)F)cc1Cl` [Compound I-6, N-(2-chloro-4-(trifluoromethyl)phenyl)-2-(5-ethyl-6-((1S,6S)-5-(5-hydroxy-6-methylpyrimidine-4-carbonyl)-2,5-diazabicyclo[4.2.0]octan-2-yl)-2-(2-methoxypyridin-4-yl)-7-oxo-2,7-dihydro-4H-[1,2,3]triazolo[4,5-b]pyridin-4-yl)acetamide], the IC50 is not above 5 nM. As to `CCc1c(N2CCN(C(=O)c3ncnc(C)c3O)[C@H]3CC[C@@H]32)c(=O)c2nn(-c3ccnc(OC)c3)nc2n1CC(=O)NC1CC2(CCC2)C1` [Compound I-86, 2-{5-ethyl-6-[(1S,6S)-5-(5-hydroxy-6-methylpyrimidine-4-carbonyl)-2,5-diazabicyclo[4.2.0]octan-2-yl]-2-(2-methoxypyridin-4-yl)-7-oxo-2H,4H,7H-[1,2,3]triazolo[4,5-b]pyridin-4-yl}-N-{spiro[3.3]heptan-2-yl}acetamide], the IC50 was in the range of 5 to 50 nM.
